According to US5021562A, “Method for azide displacement of α-triflates of 1,5-lactones” (Monsanto Company, priority 1990, dated 1991):

Assays:
Type in all cases: biochemical
[1] = molecular target: T1, human liver α-fucosidase (Homo sapiens, UniProt P04066); test: Inhibition of human liver α-fucosidase
T1 construct: from tissue; host or cells: human liver
T1 sequence (P04066 32-466): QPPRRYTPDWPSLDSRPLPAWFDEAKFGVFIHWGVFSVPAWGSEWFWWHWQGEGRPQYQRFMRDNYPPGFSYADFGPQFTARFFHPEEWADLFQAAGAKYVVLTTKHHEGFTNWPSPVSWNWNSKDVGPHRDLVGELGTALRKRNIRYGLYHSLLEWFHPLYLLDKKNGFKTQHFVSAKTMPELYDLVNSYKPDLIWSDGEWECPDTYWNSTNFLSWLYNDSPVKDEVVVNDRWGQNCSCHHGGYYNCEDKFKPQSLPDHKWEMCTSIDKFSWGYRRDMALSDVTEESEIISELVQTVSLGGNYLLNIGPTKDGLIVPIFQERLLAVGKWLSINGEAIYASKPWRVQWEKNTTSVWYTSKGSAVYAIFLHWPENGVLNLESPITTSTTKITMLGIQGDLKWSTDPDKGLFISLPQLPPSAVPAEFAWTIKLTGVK
Experimental: % Inhibition of human liver α-fucosidase and α-mannosidase
catalysed hydrolysis of 4-umbelliferyl pyrranosides at
1 mM concentration of inhibitor

[2] = test system: human α-mannosidases; test: Inhibition of human α-mannosidases (overall statement, glycosidase panel)
Source text: (§1) The relative potencies of these compounds as fucosidase inhibitors may be understood by considering them as analogues of α-L-fucose; all three compounds have the correct chirality of the secondary hydroxyl groups - the minimum requirement for inhibition of α-fucosidase. […] All the compounds are weaker inhibitors of α-fucosidase than is deoxyfuconojirimycin, since they all lack a lipophilic methyl substituent with correct configuration.

[3] = test system: β-mannosidase; test: Inhibition of human liver β-mannosidase (glycosidase panel)
Source text: as §1

Structure (SMILES)	inhibition of α-fucosidase (in words) [1]	inhibition of α-mannosidases (in words) [2]	inhibition of β-mannosidase (in words) [3]
OC[C@@H]1N[C@H](CO)[C@@H](O)[C@@H](O)[C@@H]1O [6-epi-HMJ, 2,6-dideoxy-2,6-imino-L-glycero-D-talo-heptitol]	powerful inhibitors of α-fucosidase	did not inhibit any α-mannosidase	
OC[C@H]1NC[C@@H](O)[C@@H](O)[C@@H]1O [DMJ, reference compound]	powerful inhibitors of α-fucosidase	very similar	Neither compound inhibited β-mannosidase
OC[C@H]1N[C@H](CO)[C@@H](O)C(O)[C@@H]1O (stereo partly drawn) [α-HMJ, 2,6-Dideoxy-2,6-imino-D-glycero-D-talo-heptitol]	only a weak inhibitor	very similar	Neither compound inhibited β-mannosidase
